Experimental data: US20230114728A1 (Venatorx Pharmaceuticals, Inc., priority 2019, published 2023)
Converted amounts (≈) assume the structure as drawn.

Tests used:
[1] = test system: A. baumannii CDC-0045 producing TEM-1D, OXA-23, and OXA-69; experiment: Broth microdilution MIC in iron-depleted CAMHB (IDM); assay type: cell-based; details: Acinetobacter baumannii, read-out: Minimum Inhibitory Concentration, CDC-0045
[2] = test system: P. aeruginosa CDC-0110; experiment: as above; assay type: cell-based; details: Pseudomonas aeruginosa, CDC0110, read-out: Minimum Inhibitory Concentration, P. aeruginosa CDC-0110
Description: (§1) To determine the ability of test compounds to inhibit the growth bacterial strains under conditions of iron-depletion, classic cell based broth microdilution minimum inhibitory concentration (MIC) assays were employed. MIC assays are performed according to CLSI methods except where otherwise noted (CLSI, 2018 and CLSI, 2019). The reference type strain E. coli ATCC 25922 was used to determine the ability of the PBP inhibitors to inhibit the growth of Enterobacteriaceae. Wild-type P. aeruginosa ATCC 27853, A. baumannii ATCC 17978 and A. baumannii ATCC 19606, along with the hyper-permeable P. aeruginosa ATCC 35151, an engineered efflux pump-compromised strain of P. aeruginosa (ΔmexAB-oprM), and an engineered efflux-pump compromised strain of A. baumannii IL123 (ABΔ3-ARAEcPore) were used to determine the ability of PBP inhibitors to penetrate the outer membrane of P. aeruginosa and A. baumannii and assess antibacterial activity against these important gram-negative organisms.
(§2) Briefly, cryo-preserved bacterial cultures of challenge strains are streaked for isolation on appropriate agar medium, in this case cation-adjusted Mueller Hinton agar. Following incubation to allow growth of the colonies, plates are sealed with parafilm and stored refrigerated for up to two weeks. For preparation of assay inoculum and to ensure low variability, at least 5 colonies are picked from the agar plates with an inoculating loop and aseptically transferred to a culture tube containing 3 mL of iron-depleted cation-adjusted Mueller Hinton broth (IDM)—see below for IDM preparation. The broth culture is grown for 3-5 hours at 37° C. with shaking at 200 rpm. Meanwhile, 2-fold serial dilutions of test compounds are conducted in a 96-well plate with a final volume of 75 μL per well at 2-fold the final desired concentration. After the dilution plates are set up the growing cultures are then diluted in a cuvette containing IDM and the optical density is measured at 600 nm. The inoculum is diluted such that 75 μL of this culture in IDM results in a starting bacterial concentration of 2-8×10^5 CFU/mL when added to the dilution plates. The plates are incubated for 16-20 hours for Enterobacteriaceae and Pseudomonas and 20-24 hours for Acinetobacter at 37° C. The MIC values are read visually as the lowest concentration well with no bacterial growth.
(§3) Method for Iron-Depleted Cation-Adjusted Mueller Hinton Broth (IDM) Preparation:
(§4) • Prepare cation-adjusted Mueller Hinton broth as per the manufacturer's recommendations and autoclave. • Add 100 g/L Chelex 100 resin, cover with foil and incubate with stirring for 2 hours • Remove Chelex 100 resin by filtration with 0.45 μm filter flask • Add the following back to the medium: • CaCl2 dihydrate: 82.5 mg/L • MgCl2 hexahydrate: 94.1 mg/L • ZnSO4: 10 μM • Adjust pH of medium to 7.3 with 5 N HCl • Sterilize using a 0.22 µm filter flask

[3] = test system: P. aeruginosa CDC-0054 producing VIM-4, OXA-50, and PAO; experiment: as above; assay type: cell-based; details: Pseudomonas aeruginosa, read-out: Minimum Inhibitory Concentration, P. aeruginosa CDC-0054
Description: (§5) Example IV: In Vitro Antibacterial Assays in Iron-Depleted Cation-Adjusted Mueller-Hinton Broth
as §1, §2, §3, §4

[4] = test system: P. aeruginosa ATCC 35151; experiment: as above; assay type: cell-based; details: Pseudomonas aeruginosa, ATCC35151; iron-depleted MHB (IDM); hyper-permeable strain; read-out: Minimum Inhibitory Concentration, P. aeruginosa ATCC 35151
Description: as §5, §1, §2, §3, §4

[5] = test system: A. baumannii CDC-0083 producing NDM-1, PER-7, OXA-23, and OXA-69; experiment: as above; assay type: cell-based; details: Acinetobacter baumannii, read-out: Minimum Inhibitory Concentration, CDC-0083
Description: as §5, §1, §2, §3, §4

[6] = test system: A. baumannii ATCC 19606; experiment: as above; assay type: cell-based; details: Acinetobacter baumannii, ATCC19606, read-out: Minimum Inhibitory Concentration, ATCC 19606
Description: as §5, §1, §2, §3, §4

[7] = test system: P. aeruginosa (ΔmexAB-oprM); experiment: as above; assay type: cell-based; details: Pseudomonas aeruginosa, read-out: Minimum Inhibitory Concentration, P. aeruginosa ΔmexAB-OprM
Description: as §5, §1, §2, §3, §4

[8] = test system: A. baumannii CDC-0036 OXA-65, and OXA-24; experiment: as above; assay type: cell-based; details: Acinetobacter baumannii, read-out: Minimum Inhibitory Concentration, CDC-0036
Description: as §5, §1, §2, §3, §4

[9] = test system: A. baumannii ATCC 17978; experiment: as above; assay type: cell-based; details: Acinetobacter baumannii, ATCC17978, read-out: Minimum Inhibitory Concentration, ATCC 17978
Description: as §5, §1, §2, §3, §4

[10] = test system: P. aeruginosa ATCC 27853; experiment: as above; assay type: cell-based; details: Pseudomonas aeruginosa, ATCC27853, read-out: Minimum Inhibitory Concentration, P. aeruginosa ATCC 27853
Description: as §5, §1, §2, §3, §4

[11] = test system: A. baumannii CDC-0033 producing NDM-1, and OXA-94; experiment: as above; assay type: cell-based; details: Acinetobacter baumannii, read-out: Minimum Inhibitory Concentration, CDC-0033
Description: as §5, §1, §2, §3, §4

[12] = Bocillin-FL fluorescence polarization competition binding assay, A. baumannii PBP3; details: fluorescence polarization competition binding assay using Bocillin-FL; column 3; read-out: 4. baumannii PBP1a Potency
Description: Example I: Experimental Method for Penicillin-Binding Protein Binding Assays with Bocillin-FL Via Fluorescence Polarization
To determine the ability of boronic acid-based test PBP inhibitors to bind Penicillin Binding Proteins (PBPs), Bocillin-FL (fluorescently-labeled penicillin V; ThermoFisher Scientific) was used in a fluorescence polarization (FP) competition binding assay to assess inhibitor binding to PBP2, PBP3 or PBP4 from Escherichia coli (K12), PBP3 from Pseudomonas aeruginosa (PA01), PBP1a, PBP2 and PBP3 from Acinetobacter baumannii (ATCC 19606), and PBP2 from Neiserria gonorrheae (FA19). PBPs were cloned and purified as described previously (E. coli PBPs, King, D. T, et al., ACS Infectious Diseases 2015, 1, 175-184; P. aeruginosa PBP3, Han et. al., PNAS 2010, 107 (51), 22002-22007; A. baumannii PBPs, Penwell et. al., Antimicrob. Agents Chemother. 2015, 59 (3), 1680-1689; N. gonorrhoeae PBP2, Singh et. al., J Biol. Chem. 2019, 294 (38), 14020-14032). To establish assay conditions for competition binding, enzyme titration/saturation binding experiments were initially performed. Bocillin-FL was prepared at 0.2 μM in a buffer comprised of 50 mM Hepes (pH 8.0), 300 mM NaCl and 5% (v/v) glycerol for reactions with E. coli, P. aeruginosa and N. gonorrhoeae PBPs, and 25 mM Tris (pH 8.0), 200 mM NaCl and 10% (v/v) glycerol and 0.005% (v/v) Tween 20 for reactions with A. baumannii PBPs. Saturation binding was performed by mixing 40 μl of PBP solutions ranging in concentrations from 0-24 μM with 40 μl of the 0.2 μM Bocillin-FL solution, in individual wells of a black 384-well microplate. FP was measured immediately upon mixing (Excitation, 490 nm; Emission, 520 nm; g-factor, 0.96), using a Cytation3 (BioTek) microplate reader and measured continuously for up to 120 minutes. […] The competition binding assay (80 μl final volume) was validated using beta-lactams and PBPs at final concentrations of: 1.5 μM, E. coli PBP3; 0.75 μM, P. aeruginosa PBP3; 1 μM A. baumannii PBP1a; 2.5 μM A. baumannii PBP2; 0.2 μM A. baumannii PBP3; and […] N. gonorrhoeae PBP2. Bocillin-FL was at 0.1 μM (0.05 μM with A. baumannii PBP1a) and beta-lactam concentrations ranged from 0-1000 μM. […] Bocillin-FL was added and the FP immediately measured for up to 60 minutes (90 minutes for E. coli PBP2). […] The beta-lactam potency was reported as the concentration of beta-lactam required to reduce the amount of PBP bound-Bocillin-FL by 50% (EC50). […] Binding assays for boronic acid PBP inhibitors were performed in an identical fashion for the respective PBPs

CCN1CCN(C(=O)N[C@@H](C(=O)N[C@H]2Cc3ccc(F)c(C(=O)O)c3OB2O)c2c(F)c(F)c(O)c(O)c2Cl)C(=O)C1=O [Example 228, (R)-3-((R)-2-(2-chloro-5,6-difluoro-3,4-dihydroxyphenyl)-2-(4-ethyl-2,3-dioxopiperazine-1-carboxamido)acetamido)-7-fluoro-2-hydroxy-3,4-dihydro-2H-benzo[e][1,2]oxaborinine-8-carboxylic acid]
MIC [1]: 2 to 4 µg/mL (≈ 3.18 to 6.36 µM) | MIC [2]: 0.5 to 1 µg/mL (≈ 0.795 to 1.59 µM) | MIC [3]: 2 to 4 µg/mL (≈ 3.18 to 6.36 µM) | MIC [4]: 0.25 µg/mL (≈ 0.398 µM) | MIC [5]: 2 to 4 µg/mL (≈ 3.18 to 6.36 µM) | MIC [6]: 0.25 µg/mL (≈ 0.398 µM) | MIC [7]: 0.25 µg/mL (≈ 0.398 µM) | MIC [8]: 2 to 4 µg/mL (≈ 3.18 to 6.36 µM) | MIC [9]: 0.5 to 1 µg/mL (≈ 0.795 to 1.59 µM) | MIC [10]: 0.5 to 1 µg/mL (≈ 0.795 to 1.59 µM) | MIC [11]: 2 to 4 µg/mL (≈ 3.18 to 6.36 µM) | EC50 [12]: 10 to 30 µM
